# Data from US9510598B2, “Nitrogen-containing heterocyclic compounds for plant disease control” (BAYER CROPSCIENCE AG, priority 2012, dated 2016).
# Where “and” joins values, the source holds several entries; their conditions need not be identical. Equal values may be shown once. Read-outs that look alike come from different tables or passages of the source.
# Tests used:
# [1] = test system: Pyrenophora teres; assay: In vivo preventive test on Pyrenophora teres (net blotch on barley); settings: 500 ppm; barley plants sprayed 24 hours before contamination; grading 12 days after contamination vs control plants
# Method: Barley plants (“Plaisant” variety), sown in starter cups on a 50/50 peat soil-pozzolana substrate and grown at 22° C. (12 h)/20° C. (12 h), are treated at the 1-leaf stage (10 cm height) by spraying with the active ingredient prepared as described above. Plants, used as controls, are treated with the mixture of acetone/tween/DMSO/water not containing the active material. After 24 hours, the plants are contaminated by spraying the leaves with an aqueous suspension of Pyrenophora teres spores (12 000 spores per ml). The spores are collected from a 12-day-old culture. […] Grading (% of efficacy) is carried out 12 days after the contamination, in comparison with the control plants.
# [2] = assay type: physicochemical
# [3] = test system: Septoria tritici; assay: In vivo preventive test on Septoria tritici (leaf spot on wheat); settings: 500 ppm; wheat plants sprayed 24 hours before contamination; grading 21 to 28 days after contamination vs control plants
# How it was run: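 Scipion wheat at 1-leaf stage sprayed with compound, controls receiving acetone/tween/DMSO/water vehicle; 24 h later leaves inoculated with Septoria tritici spores (500 000 spores per ml). Efficacy (%) graded versus control plants 21 to 28 days after contamination.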
# [4] = test system: Alternaria brassicae; assay: In vivo preventive test on Alternaria brassicae (leaf spot on radish); settings: 500 ppm; radish plants sprayed 24 hours before contamination; grading 5 days after contamination vs control plants
# How it was run: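 Radish plants ('Pernod Clair', grown at 17 °C) were spray-treated at the 2-leaf stage; controls received solvent mix only. After 24 h, leaves were sprayed with 50 000 spores/ml from 15-day-old cultures, and % efficacy was graded 5 days post-inoculation against controls.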
# [5] = test system: Uromyces appendiculatus; assay: In vivo preventive test on Uromyces appendiculatus (bean rust); settings: 500 ppm; bean plants sprayed 24 hours before contamination; grading 10 days after contamination vs control plants
# Method: Bean plants (“Saxa” variety), sown in starter cups on a 50/50 peat soil-pozzolana substrate and grown at 24° C., are treated at the 2-leaf stage (9 cm height) by spraying with the active ingredient prepared as described above. Plants, used as controls, are treated with the mixture of acetone/tween/DMSO/water not containing the active material. After 24 hours, the plants are contaminated by spraying the leaves with an aqueous suspension of Uromyces appendiculatus spores (150 000 spores per ml).
# [6] = test system: Puccinia recondita; assay: In vivo preventive test on Puccinia recondita (brown rust on wheat); settings: 500 ppm; wheat plants sprayed 24 hours before contamination; grading 10 days after contamination vs control plants
# Method: Wheat plants (“Scipion” variety), sown in starter cups on a 50/50 peat soil-pozzolana substrate and grown at 22° C. (12 h)/20° C. (12 h), are treated at the 1-leaf stage (10 cm height) by spraying with the active ingredient prepared as described above. Plants, used as controls, are treated with the mixture of acetone/tween/DMSO/water not containing the active material. After 24 hours, the plants are contaminated by spraying the leaves with an aqueous suspension of Puccinia recondita spores (100 000 spores per ml).
# [7] = test system: Sphaerotheca fuliginea; assay: In vivo preventive test on Sphaerotheca fuliginea (powdery mildew on cucurbits); settings: 500 ppm; gherkin plants sprayed 24 hours before contamination; grading 12 days after contamination vs control plants
# How it was run: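 Preventive spray of gherkin plants at Z11 cotyledon stage, grown at 24° C; inoculation 24 hours later with Sphaerotheca fuliginea spores (100 000 spores per ml). Efficacy graded 12 days post-inoculation as % versus solvent-treated control plants.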
# [8] = test system: Botrytis cinerea; assay: In vivo preventive test on Botrytis cinerea (grey mould); settings: 500 ppm; gherkin plants sprayed 24 hours before contamination; grading 4-5 days after contamination vs control plants
# How it was run: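 Gherkin plants ("Vert petit de Paris") sprayed with compound at Z11 cotyledon stage, then inoculated 24 h later with B. cinerea spores (50 000/ml) in PDB/fructose/NH4NO3/KH2PO4 nutrient solution. Incubated at 17 °C, 80% RH; % efficacy versus solvent-treated controls graded 4–5 days after contamination.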
# [9] = test system: Peronospora parasitica; assay: In vivo preventive test on Peronospora parasitica (crucifer downy mildew); settings: 500 ppm; cabbage plants sprayed 24 hours before contamination; grading 5 days after contamination vs control plants
# Method: Cabbage plants (Eminence variety) in starter cups, sown on a 50/50 peat soil-pozzolana substrate and grown at 18-20° C., are treated at the cotyledon stage by spraying with the aqueous suspension described above. Plants, used as controls, are treated with an aqueous solution not containing the active material. After 24 hours, the plants are contaminated by spraying them with an aqueous suspension of Peronospora parasitica spores (50.000 spores per ml). The spores are collected from infected plant. The contaminated cabbage plants are incubated for 5 days at 20° C., under a humid atmosphere. Grading is carried out 5 days after the contamination, in comparison with the control plants.
# [10] = test system: Phytophthora infestans; assay type: in vivo; settings: 500 ppm; tomato plants sprayed 24 hours before contamination; grading 5 days after contamination vs control plants
# [11] = method [a]: HPLC/LC-MS on reversed phase at pH 2.7, 0.1% formic acid in water / acetonitrile, gradient 10% to 95% acetonitrile
# [12] = method [a]: HPLC/LC-MS on reversed phase at pH 2.7, 0.1% formic acid in water / acetonitrile, linear gradient 10% to 95% acetonitrile
# [13] = HPLC on reversed phase columns, method [a]: pH 2.7, 0.1% formic acid in water / acetonitrile, linear gradient 10% to 95% acetonitrile
smiles,measurement,setting,value
CC(C)NC(=O)C1(C)CC(c2ccc3ncc(C(F)(F)F)cc3c2)=NO1 (racemic) [compound 384],% of efficacy (protection),[1],86%
same,log P,[2]; [11],2.90[a]
same,% of efficacy (protection),[3],100%
same,% of efficacy (protection),[4],83%
same,% of efficacy (protection),[5],79%
same,% of efficacy (protection),[6],89%
C#Cc1cnc2ccc(C3=NOC(CC)(C(=O)NCCCOCC)C3)cc2c1 (racemic) [compound 440],% of efficacy (protection),[1],75%
same,log P,[2]; [11],2.73[a]
same,% of efficacy (protection),[7],89%
C#Cc1cnc2ccc(C3=NOC(C)(C(=O)NCc4ccccc4)C3)cc2c1 (centres unmarked) [compound 169],% of efficacy (protection),[1],79%
same,log P,[2]; [12],2.86^[a]
same,% of efficacy (protection),[3],100%
same,% of efficacy (protection),[8],100%
CCn1cc(CNC(=O)C2(C)CC(c3ccc4ncc(I)cc4c3)=NO2)c(C)n1 (centres unmarked) [compound 39],log P,[2]; [12],2.49^[a]
same,% of efficacy (protection),[8],100%
same,"Grading, protection",[9],100%
same,% of efficacy (protection),[10],100%
same,% of efficacy (protection),[7],100%
C#Cc1cnc2ccc(C3=NOC(C)(C(=O)NC(C)c4ccccn4)C3)cc2c1 (centres unmarked) [compound 206],% of efficacy (protection),[1],71%
same,log P,[2]; [12],1.9^[a]
same,% of efficacy (protection),[3],100%
same,% of efficacy (protection),[10],93%
same,% of efficacy (protection),[7],94%
CCOCCCNC(=O)C1(C(F)(F)F)CC(c2ccc3ncc(Br)cc3c2)=NO1 (centres unmarked) [compound 105],% of efficacy (protection),[1],79%
same,log P,[2]; [12],3.57^[a]
same,% of efficacy (protection),[3],75%
same,% of efficacy (protection),[4],70%
same,% of efficacy (protection),[5],86%
same,% of efficacy (protection),[6],71%
same,% of efficacy (protection),[7],100%
Cc1cnc2ccc(C3=NOC(C)(C(=O)NC(C)C)C3)cc2c1 (centres unmarked) [compound 260],% of efficacy (protection),[1],75%
same,log P,[2]; [13],1.63^[a]
same,% of efficacy (protection),[3],98%
same,% of efficacy (protection),[8],75%
same,% of efficacy (protection),[10],90%
CCOCCCNC(=O)C1(OC)CC(c2ccc3ncc(Br)cc3c2)=NO1 (centres unmarked) [compound 52],% of efficacy (protection),[1],71%
same,log P,[2]; [12],2.68^[a]
same,% of efficacy (protection),[3],93% and 97%
same,% of efficacy (protection),[4],71% and 75%
same,% of efficacy (protection),[8],100%
same,% of efficacy (protection),[6],88%
same,% of efficacy (protection),[7],100%
CC1(C(=O)NCc2ccc3c(c2)CCO3)CC(c2ccc3ncc(Br)cc3c2)=NO1 (centres unmarked) [compound 122],% of efficacy (protection),[1],86%
same,log P,[2]; [12],3.13^[a]
C#CCONC(=O)C1(C)CC(c2ccc3ncc(Br)cc3c2)=NO1 (centres unmarked) [compound 306],% of efficacy (protection),[1],75%
same,log P,[2]; [13],2.22[a]
same,% of efficacy (protection),[3],78%
same,% of efficacy (protection),[4],71%
same,% of efficacy (protection),[5],100%
Cc1c(CNC(=O)C2(C)CC(c3ccc4ncc(Br)cc4c3)=NO2)cnn1C (centres unmarked) [compound 179],% of efficacy (protection),[1],86%
same,log P,[2]; [12],2.15^[a]
C#Cc1cnc2ccc(C3=NOC(C)(C(=O)NCc4cccc5ccccc45)C3)cc2c1 (centres unmarked) [compound 225],% of efficacy (protection),[1],79%
same,log P,[2]; [12],3.46^[a]
COC1C(c2ccc3ncc(Br)cc3c2)=NOC1(C)C(=O)NC(C)C (centres unmarked) [compound 419],% of efficacy (protection),[1],75%
same,log P,[2]; [11],2.91[a]
C#Cc1cnc2ccc(C3=NOC(C)(C(=O)NCc4ccc(Cl)cc4Cl)C3)cc2c1 (centres unmarked) [compound 198],% of efficacy (protection),[1],86%
same,log P,[2]; [12],3.73^[a]
same,% of efficacy (protection),[3],86%
same,% of efficacy (protection),[4],98%
same,% of efficacy (protection),[8],95%
CCCn1cc(CNC(=O)C2(C)CC(c3ccc4ncc(Br)cc4c3)=NO2)c(C)n1 (centres unmarked) [compound 49],log P,[2]; [12],2.64^[a]
same,% of efficacy (protection),[3],79% and 97%
same,% of efficacy (protection),[8],100%
same,"Grading, protection",[9],100%
same,% of efficacy (protection),[10],100%
same,% of efficacy (protection),[7],98%
C#Cc1cnc2ccc(C3=NOC(OC)(C(=O)NC(C)C)C3)cc2c1 (centres unmarked) [compound 406],% of efficacy (protection),[1],83%
same,log P,[2]; [11],2.35[a]
same,% of efficacy (protection),[3],100%
same,% of efficacy (protection),[7],100%
CC(C)NC(=O)C1(C)CC(c2ccc3ncc(N)cc3c2)=NO1 (racemic) [compound 435],% of efficacy (protection),[1],83%
same,log P,[2]; [11],1.19[a]
same,% of efficacy (protection),[5],77%
CCc1cnc2ccc(C3=NOC(C)(C(=O)NCc4cn(CC)nc4C)C3)cc2c1 (centres unmarked) [compound 256],% of efficacy (protection),[1],75%
same,log P,[2]; [13],1.72^[a]
same,% of efficacy (protection),[3],100%
C#Cc1cnc2ccc(C3=NOC(C)(C(=O)NCc4ccc5c(c4)CCO5)C3)cc2c1 (centres unmarked) [compound 219],% of efficacy (protection),[1],71%
same,log P,[2]; [12],2.78^[a]
same,% of efficacy (protection),[4],75%
same,% of efficacy (protection),[8],99%
CCn1cc(CNC(=O)C2(C)CC(c3ccc4ncc(C(F)(F)F)cc4c3)=NO2)c(C)n1 (racemic) [compound 383],% of efficacy (protection),[1],86%
same,log P,[2]; [11],2.45[a]
same,% of efficacy (protection),[3],100%
same,% of efficacy (protection),[4],83%
same,% of efficacy (protection),[5],99%
same,% of efficacy (protection),[6],94%
CCn1cc(CNC(=O)C2(C(F)(F)F)CC(c3ccc4ncc(Br)cc4c3)=NO2)c(C)n1 (centres unmarked) [compound 35],log P,[2]; [12],3.02^[a]
same,% of efficacy (protection),[3],97%
same,"Grading, protection",[9],90%
C=C(C)C1(C(=O)NCC2COC(C)(C)O2)CC(c2ccc3ncc(Br)cc3c2)=NO1 (centres unmarked) [compound 520],% of efficacy (protection),[1],88%
same,log P,[2]; [13],3.29[a]
same,% of efficacy (protection),[3],79%
CC1(C)OCC(CNC(=O)C2(C)CC(c3ccc4ncc(Br)cc4c3)=NO2)O1 (centres unmarked) [compound 129],% of efficacy (protection),[1],88%
same,log P,[2]; [12],2.64^[a]
same,% of efficacy (protection),[3],100%
same,% of efficacy (protection),[5],100%
same,% of efficacy (protection),[10],85%
same,% of efficacy (protection),[7],80%
CC(C)NC(=O)C1(C)CC(c2ccc3ncc(Br)cc3c2)=NO1 (centres unmarked) [compound 31],log P,[2]; [12],2.75^[a]
same,% of efficacy (protection),[3],100%
same,% of efficacy (protection),[8],93%
same,"Grading, protection",[9],90%
same,% of efficacy (protection),[7],100%
COC1(C(=O)NC(C)C)CC(c2ccc3ncc(I)cc3c2)=NO1 (racemic) [compound 436],% of efficacy (protection),[1],92%
same,log P,[2]; [11],2.75[a]
same,% of efficacy (protection),[3],100%
same,% of efficacy (protection),[5],100%
same,% of efficacy (protection),[6],94%
same,% of efficacy (protection),[7],100%
Cc1nn(C)c(C)c1CNC(=O)C1(C)CC(c2ccc3ncc(Br)cc3c2)=NO1 (centres unmarked) [compound 177],% of efficacy (protection),[1],86%
same,log P,[2]; [12],2.13^[a]
CCn1cc(CNC(=O)C2(C)CC(c3ccc4ncc(Br)cc4c3)=NO2)c(C)n1 (centres unmarked) [compound 34],log P,[2]; [12],2.39^[a]
same,% of efficacy (protection),[8],100%
same,"Grading, protection",[9],98%
same,% of efficacy (protection),[10],99%
same,% of efficacy (protection),[7],94% and 98%
